Assay results: ChEMBL document CHEMBL1201862, “PubChem BioAssay data set” (2004)
Activity calls are given as the source filed them. Rule as the data show it, for most assays here: actives have a measured IC50 and inactives only a lower limit.

Assays:
[1] = target: T1, Caspase-3 (Homo sapiens, UniProt P42574); test: caspase-3 inhibitors as off-family protease, SAR follow-up, selectivity assay for SENP protease inhibitor project, biochemical, luminescence, set 2 (AID 588599); assay type: functional
T1 sequence (P42574 whole entry): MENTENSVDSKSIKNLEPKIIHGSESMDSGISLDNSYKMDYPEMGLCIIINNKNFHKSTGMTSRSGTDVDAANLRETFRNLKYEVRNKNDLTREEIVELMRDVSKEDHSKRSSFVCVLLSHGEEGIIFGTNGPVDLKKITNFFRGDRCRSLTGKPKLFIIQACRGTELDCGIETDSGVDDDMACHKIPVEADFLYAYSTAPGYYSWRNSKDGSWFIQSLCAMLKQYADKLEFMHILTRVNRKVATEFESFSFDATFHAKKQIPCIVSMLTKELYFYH

[2] = target: T2, Sentrin-specific protease 8 (Homo sapiens, UniProt Q96LD8); test: SENP8 protease inhibitors, SAR follow-up, biochemical, luminescence, set 2 (AID 588601); assay type: functional
T2 sequence (Q96LD8 whole entry): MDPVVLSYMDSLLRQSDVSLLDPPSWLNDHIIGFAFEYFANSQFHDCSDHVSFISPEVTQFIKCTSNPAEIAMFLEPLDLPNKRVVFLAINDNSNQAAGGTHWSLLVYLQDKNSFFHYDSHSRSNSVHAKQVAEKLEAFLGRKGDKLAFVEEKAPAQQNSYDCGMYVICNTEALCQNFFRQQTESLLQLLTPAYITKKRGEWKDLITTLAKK

[3] = target: T3, Sentrin-specific protease 7 (Homo sapiens, UniProt Q9BQF6); test: SENP7 protease inhibitors, SAR follow-up, biochemical, luminescence, set 2 (AID 588600); assay type: functional
T3 sequence (Q9BQF6 whole entry): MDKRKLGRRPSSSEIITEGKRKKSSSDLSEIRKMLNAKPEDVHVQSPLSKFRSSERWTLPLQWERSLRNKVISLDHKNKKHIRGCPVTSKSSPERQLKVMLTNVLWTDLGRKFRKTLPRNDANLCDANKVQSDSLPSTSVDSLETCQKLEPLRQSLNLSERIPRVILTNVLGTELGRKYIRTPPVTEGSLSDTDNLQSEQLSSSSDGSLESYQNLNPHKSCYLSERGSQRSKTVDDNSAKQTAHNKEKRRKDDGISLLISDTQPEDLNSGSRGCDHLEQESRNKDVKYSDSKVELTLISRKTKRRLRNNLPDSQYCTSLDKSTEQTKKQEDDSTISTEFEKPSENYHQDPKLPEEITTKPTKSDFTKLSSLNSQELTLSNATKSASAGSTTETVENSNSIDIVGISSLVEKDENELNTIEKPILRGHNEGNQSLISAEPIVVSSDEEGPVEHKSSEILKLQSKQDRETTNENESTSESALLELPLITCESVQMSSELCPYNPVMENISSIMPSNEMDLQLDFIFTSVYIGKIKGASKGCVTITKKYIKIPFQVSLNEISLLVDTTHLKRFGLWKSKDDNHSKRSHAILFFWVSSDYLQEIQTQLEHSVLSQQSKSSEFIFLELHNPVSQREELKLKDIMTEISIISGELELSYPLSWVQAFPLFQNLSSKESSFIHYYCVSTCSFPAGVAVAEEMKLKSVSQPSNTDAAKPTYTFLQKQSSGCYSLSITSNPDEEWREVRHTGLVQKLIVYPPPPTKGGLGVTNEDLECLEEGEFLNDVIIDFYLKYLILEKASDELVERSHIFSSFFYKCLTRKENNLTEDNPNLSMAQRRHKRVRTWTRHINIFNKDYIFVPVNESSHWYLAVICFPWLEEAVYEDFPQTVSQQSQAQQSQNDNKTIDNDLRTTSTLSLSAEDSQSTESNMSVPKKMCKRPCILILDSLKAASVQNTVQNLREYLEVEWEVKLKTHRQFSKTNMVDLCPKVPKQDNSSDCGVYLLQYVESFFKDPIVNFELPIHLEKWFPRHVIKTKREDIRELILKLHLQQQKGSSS

[4] = target: T4, Sentrin-specific protease 6 (Homo sapiens, UniProt Q9GZR1); test: SENP6 protease inhibitors, SAR follow-up, biochemical, luminescence, set 2 (AID 588598); assay type: functional
T4 sequence (Q9GZR1 whole entry): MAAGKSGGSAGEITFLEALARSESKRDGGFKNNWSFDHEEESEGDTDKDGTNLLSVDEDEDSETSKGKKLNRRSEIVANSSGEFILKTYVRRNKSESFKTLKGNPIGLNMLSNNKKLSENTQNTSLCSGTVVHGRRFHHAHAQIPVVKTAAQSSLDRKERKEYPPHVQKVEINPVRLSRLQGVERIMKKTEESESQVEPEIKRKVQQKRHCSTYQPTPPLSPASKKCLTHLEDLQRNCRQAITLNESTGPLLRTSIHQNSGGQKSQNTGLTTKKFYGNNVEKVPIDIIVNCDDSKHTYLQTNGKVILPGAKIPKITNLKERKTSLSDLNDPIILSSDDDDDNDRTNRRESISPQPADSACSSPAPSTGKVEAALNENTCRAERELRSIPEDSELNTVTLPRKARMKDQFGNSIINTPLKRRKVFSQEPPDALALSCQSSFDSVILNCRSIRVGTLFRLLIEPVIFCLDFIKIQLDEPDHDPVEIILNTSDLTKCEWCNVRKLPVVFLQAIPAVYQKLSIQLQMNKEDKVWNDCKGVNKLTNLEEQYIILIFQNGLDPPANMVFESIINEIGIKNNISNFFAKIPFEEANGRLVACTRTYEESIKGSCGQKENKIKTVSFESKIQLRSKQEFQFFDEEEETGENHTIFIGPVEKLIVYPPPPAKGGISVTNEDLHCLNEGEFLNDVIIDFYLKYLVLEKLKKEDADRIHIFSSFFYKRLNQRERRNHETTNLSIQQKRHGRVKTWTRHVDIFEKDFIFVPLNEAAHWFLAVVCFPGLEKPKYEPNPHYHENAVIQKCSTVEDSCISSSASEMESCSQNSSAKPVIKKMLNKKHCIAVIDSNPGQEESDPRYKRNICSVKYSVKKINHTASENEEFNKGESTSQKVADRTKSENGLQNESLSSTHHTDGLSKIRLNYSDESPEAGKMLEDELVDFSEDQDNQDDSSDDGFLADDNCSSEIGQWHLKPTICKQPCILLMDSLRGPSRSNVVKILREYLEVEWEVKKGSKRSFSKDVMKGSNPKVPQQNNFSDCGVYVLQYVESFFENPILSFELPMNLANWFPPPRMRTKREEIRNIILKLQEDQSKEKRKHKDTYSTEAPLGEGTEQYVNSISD

[5] = CAL PDZ domain peptide-binding inhibitors, dose response, biochemical, fluorescence polarization, untagged CAL PDZ, cherry-pick, set 2 (AID 602254); assay type: functional
[6] = target: Melanocortin receptor 4 (Homo sapiens, UniProt P32245); assay type: functional, cell-based;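 also: Cell-based assay with luminescence read-out, confirmatory dose-response testing for agonist activity of biased ligands at MC4R; human U2OS cells with tagged receptor and beta-arrestin; potency of agonists that increase receptor coupling to beta-arrestin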
[7] = target: T5, Bcl-2-related protein A1 (Mus musculus, UniProt Q07440); assay type: functional;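 also: confirmatory dose–response counterscreen on Bfl-1, used to check hits from a UBC13 polyubiquitin inhibitor campaign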
T5 sequence (Q07440 whole entry): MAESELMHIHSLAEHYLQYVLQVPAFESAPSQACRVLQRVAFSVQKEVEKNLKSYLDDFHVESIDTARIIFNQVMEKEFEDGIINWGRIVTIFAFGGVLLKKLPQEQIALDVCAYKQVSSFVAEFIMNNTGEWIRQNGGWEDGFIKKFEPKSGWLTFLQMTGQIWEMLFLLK

[8] = target: T6, Ubiquitin-conjugating enzyme E2 N (Homo sapiens, UniProt P61088); assay type: functional
T6 sequence (P61088 whole entry): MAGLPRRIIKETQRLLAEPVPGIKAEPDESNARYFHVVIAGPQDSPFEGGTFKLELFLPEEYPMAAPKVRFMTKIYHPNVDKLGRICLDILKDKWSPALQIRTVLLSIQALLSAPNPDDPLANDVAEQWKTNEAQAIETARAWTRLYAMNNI

[9] = target: Intestinal-type alkaline phosphatase (Mus musculus, UniProt P24822); test: PubChem AID 488785; assay type: functional
[10] = target: T6, Ubiquitin-conjugating enzyme E2 N; assay type: functional; remark: listed apart in the source
[11] = target: T7, Alkaline phosphatase, tissue-nonspecific isozyme (Homo sapiens, UniProt P05186); test: TNAP enzyme inhibition by screening hits, dose response, selectivity assay for mouse IAP inhibitor project, biochemical, human TNAP, uHTS hits (AID 488906); assay type: functional
T7 sequence (P05186 whole entry): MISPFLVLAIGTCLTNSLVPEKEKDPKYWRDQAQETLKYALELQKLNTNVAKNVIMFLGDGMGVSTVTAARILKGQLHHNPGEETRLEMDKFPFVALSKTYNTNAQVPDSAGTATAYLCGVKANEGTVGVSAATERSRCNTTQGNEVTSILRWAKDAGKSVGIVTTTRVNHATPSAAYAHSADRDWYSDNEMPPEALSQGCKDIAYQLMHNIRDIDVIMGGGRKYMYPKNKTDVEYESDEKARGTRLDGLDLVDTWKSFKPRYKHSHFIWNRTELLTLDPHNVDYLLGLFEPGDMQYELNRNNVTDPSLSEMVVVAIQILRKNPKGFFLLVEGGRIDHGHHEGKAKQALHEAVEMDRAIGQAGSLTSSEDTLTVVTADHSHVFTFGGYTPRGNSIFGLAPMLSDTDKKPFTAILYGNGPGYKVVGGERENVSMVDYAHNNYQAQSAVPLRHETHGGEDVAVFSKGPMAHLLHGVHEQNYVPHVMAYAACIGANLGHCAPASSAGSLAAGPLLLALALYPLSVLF

[12] = target: Intestinal-type alkaline phosphatase (Homo sapiens, UniProt P09923); test: inhibition of human intestinal alkaline phosphatase – biochemical, dose response (AID 488876); assay type: functional
[13] = target: T8, Insulin-degrading enzyme (Homo sapiens, UniProt P14735); test: activators of recombinant IDE enzyme, dose response, counter-screen for IDE activator project, biochemical, fluorescence polarization (AID 588681)
T8 sequence (P14735 whole entry): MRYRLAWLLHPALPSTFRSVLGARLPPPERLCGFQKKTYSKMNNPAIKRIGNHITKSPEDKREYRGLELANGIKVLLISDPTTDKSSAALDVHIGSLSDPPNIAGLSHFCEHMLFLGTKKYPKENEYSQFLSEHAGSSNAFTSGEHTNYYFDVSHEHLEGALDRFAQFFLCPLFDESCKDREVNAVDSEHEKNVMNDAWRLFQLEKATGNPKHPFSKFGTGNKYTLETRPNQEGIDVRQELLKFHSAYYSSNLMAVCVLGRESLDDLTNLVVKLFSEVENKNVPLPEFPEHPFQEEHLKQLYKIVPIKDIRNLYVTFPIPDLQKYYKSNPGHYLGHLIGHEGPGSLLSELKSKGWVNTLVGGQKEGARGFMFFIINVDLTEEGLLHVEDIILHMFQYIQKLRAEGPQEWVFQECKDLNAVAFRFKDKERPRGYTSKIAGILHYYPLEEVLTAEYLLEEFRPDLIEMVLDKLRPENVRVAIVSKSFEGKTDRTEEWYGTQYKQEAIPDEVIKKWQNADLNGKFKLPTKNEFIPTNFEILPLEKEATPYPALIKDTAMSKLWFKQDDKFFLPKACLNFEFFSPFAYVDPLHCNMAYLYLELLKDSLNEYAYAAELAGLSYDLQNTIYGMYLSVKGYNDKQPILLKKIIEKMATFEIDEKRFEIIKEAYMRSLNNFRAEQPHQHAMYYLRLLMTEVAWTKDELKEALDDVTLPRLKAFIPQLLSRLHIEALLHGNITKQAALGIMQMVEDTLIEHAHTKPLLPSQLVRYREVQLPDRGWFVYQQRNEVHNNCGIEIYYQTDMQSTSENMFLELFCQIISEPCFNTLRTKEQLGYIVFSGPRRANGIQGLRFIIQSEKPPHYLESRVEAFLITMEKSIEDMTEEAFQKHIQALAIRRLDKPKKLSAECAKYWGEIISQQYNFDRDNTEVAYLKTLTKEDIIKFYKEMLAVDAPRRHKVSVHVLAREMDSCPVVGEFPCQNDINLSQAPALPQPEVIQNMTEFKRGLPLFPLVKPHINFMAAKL

[14] = target: T8, Insulin-degrading enzyme; test: activators of endogenous IDE in HEK cells, dose response, cell-based, fluorescence polarization (AID 588439); assay type: functional
[15] = tested on: HEK293; test: HEK cell cytotoxicity by LDH release, dose response, cytotoxicity control for IDE activator project, fluorescence, HEK cells (AID 588440); assay type: functional, cell-based; conditions: Homo sapiens;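 also: cytotoxicity by LDH release measuring loss of membrane integrity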
[16] = tested on: HEK293; test: optical interference in Abeta FP readout, dose response, artefact control for IDE activator project, biochemical, fluorescence polarization (AID 588442); assay type: functional, cell-based; conditions: Homo sapiens

Melanocortin receptor 4, sequence (P32245 whole entry): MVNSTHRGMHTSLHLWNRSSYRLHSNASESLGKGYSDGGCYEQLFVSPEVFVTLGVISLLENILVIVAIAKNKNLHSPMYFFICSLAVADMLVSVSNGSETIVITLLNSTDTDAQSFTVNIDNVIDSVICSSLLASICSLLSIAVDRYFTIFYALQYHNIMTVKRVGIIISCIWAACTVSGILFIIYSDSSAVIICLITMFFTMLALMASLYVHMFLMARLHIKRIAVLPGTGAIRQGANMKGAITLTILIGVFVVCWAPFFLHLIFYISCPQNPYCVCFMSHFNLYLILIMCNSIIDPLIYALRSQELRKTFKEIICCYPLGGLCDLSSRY
Intestinal-type alkaline phosphatase (Homo sapiens, UniProt P09923), sequence (P09923 whole entry): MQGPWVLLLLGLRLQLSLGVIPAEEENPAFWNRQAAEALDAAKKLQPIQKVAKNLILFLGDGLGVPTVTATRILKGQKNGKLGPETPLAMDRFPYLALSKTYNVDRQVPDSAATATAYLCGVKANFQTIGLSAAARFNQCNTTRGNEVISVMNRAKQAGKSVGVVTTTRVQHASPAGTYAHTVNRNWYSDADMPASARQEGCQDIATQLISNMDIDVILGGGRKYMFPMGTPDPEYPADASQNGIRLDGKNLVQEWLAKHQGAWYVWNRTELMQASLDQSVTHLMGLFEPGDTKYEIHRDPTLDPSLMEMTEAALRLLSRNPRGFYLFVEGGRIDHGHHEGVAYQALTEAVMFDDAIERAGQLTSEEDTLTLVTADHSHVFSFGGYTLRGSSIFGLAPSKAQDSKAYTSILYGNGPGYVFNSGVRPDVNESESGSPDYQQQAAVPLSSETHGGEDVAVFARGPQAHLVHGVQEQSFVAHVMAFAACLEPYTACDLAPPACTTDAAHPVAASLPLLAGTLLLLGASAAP
Intestinal-type alkaline phosphatase (Mus musculus, UniProt P24822), sequence (P24822 whole entry): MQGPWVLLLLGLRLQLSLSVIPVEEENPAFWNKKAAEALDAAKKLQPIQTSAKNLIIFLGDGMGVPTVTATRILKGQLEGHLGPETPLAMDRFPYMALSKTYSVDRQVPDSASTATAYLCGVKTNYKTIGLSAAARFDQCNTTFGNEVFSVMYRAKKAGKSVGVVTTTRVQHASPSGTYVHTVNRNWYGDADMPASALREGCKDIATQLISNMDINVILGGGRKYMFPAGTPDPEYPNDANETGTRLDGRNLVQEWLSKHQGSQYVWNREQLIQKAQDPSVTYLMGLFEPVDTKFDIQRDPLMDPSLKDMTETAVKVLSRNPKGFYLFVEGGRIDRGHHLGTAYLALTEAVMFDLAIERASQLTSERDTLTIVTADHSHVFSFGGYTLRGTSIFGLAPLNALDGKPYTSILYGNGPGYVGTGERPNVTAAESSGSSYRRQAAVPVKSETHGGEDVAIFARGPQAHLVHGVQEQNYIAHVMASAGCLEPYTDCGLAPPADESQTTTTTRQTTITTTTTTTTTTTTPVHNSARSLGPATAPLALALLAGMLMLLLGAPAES

Cc1[nH]c2ccccc2c1C(=O)C(=O)NCc1cc(-c2cc3ccccc3o2)on1
IC50 [1]: > 99 µM (inactive) | IC50 [2]: > 99 µM (inactive) | IC50 [3]: > 99 µM (inactive) | IC50 [4]: > 99 µM (inactive)

Cc1ccc(-c2nc(C)sc2CC(=O)OCC(=O)Nc2ccc(F)c(Cl)c2)cc1
AC50 [5]: 110 µM (active)

Cc1ccc(C(=O)Nc2nc(C(N)Cc3ccc(C(F)(F)F)cc3)cs2)cc1 (stereo unspecified)
EC50 [6]: > 89.2 µM (inactive)

C#CCOCCOCCOCCNc1nc(N2CCN(C(=O)CCCCCCCCCCNC(=O)Cn3cc(CCCCCN)nn3)CC2)nc(N2CCN(C(=O)CCCCCCCCCCNC(=O)[C@@H](CCSC)n3cc(CCO)nn3)CC2)n1
IC50 [7]: 18.5 µM (active) | IC50 [8]: 6.59 µM (active) | IC50 [9]: 6.92 µM (active) | IC50 [10]: 4.6 µM (active) | IC50 [11]: > 100 µM (inactive) | IC50 [12]: > 100 µM (inactive) | EC50 [13]: > 54.7 µM (inactive) | EC50 [14]: > 6.08 µM (active) | IC50 [15]: 14.5 µM (inactive) | EC50 [16]: > 54.7 µM (inactive)
